Assay results published in PubChem BioAssay AID1963861 (Molecular Pharmacology Branch, DTP, NCI, 2024).

Tested on: 885724-159-R-J1-PDC KRAS PDC multicell spheroid viability
Test: Anticancer human tumor 885724-159-R-J1-PDC patient-derived pancreatic adenocarcinoma cell line growth inhibition [KRAS2]
Details: for IC50: curve of first compound; for viability, T/C: stronger effect = lower value
Excerpt: Multicellular complex tumor spheroid response to RAS pathway inhibitors in combination with a targeted agents in patient-derived cell lines with oncogenic KRAS variants from multiple cancer types
A high-throughput screen of multi-cell type tumor spheroids was designed to identify active combinations of targeted small molecules and KRAS pathway inhibitors. Complex spheroids include a stromal component modeled by human endothelial cells (HUVEC) and fibroblasts modeled by human mesenchymal stem cells (MSCs). The concentration ranges selected for each drug and investigational agent were based upon clinically achievable concentrations if the clinical Cmax of the agent was known.
Compounds. The drugs and investigational agents: BI-3406 (NSC825286), BAY-293 (NSC824723), batoprotafib (TNO155; NSC825523), sotorasib (AMG 510; NSC818433), MRTX1257 (NSC819558), elimusertib (BAY 1895344; NSC800525), molibresib (GSK525762; NSC774829), temuterkib (LY3214996; NSC803410), venetoclax (NSC766270), alisertib (NSC759677), olaparib (NSC753686), talazoparib (NSC767125), erdafitinib (NSC781556), ipatasertib (NSC767898), cabozantinib (NSC761068), nintedanib (NSC756659), abemaciclib (NSC768073), docetaxel (NSC628503), trametinib (NSC758246), and sapanisertib (NSC764658) were obtained from the National Cancer Institute (NCI) Developmental Therapeutics Program Chemical Repository. The FDA-approved anticancer drug set is available from the Developmental Therapeutics Program. […] The stock solutions were prepared in dimethyl sulfoxide (DMSO, Sigma-Aldrich, St. Louis, MO, cat. D2650) at 800-fold the tested concentration and stored at -70 degrees C prior to their use. All drugs and investigational agents were tested over a range starting from a high concentration at or near the clinical Cmax and decreasing in half-log increments. If the clinical Cmax for an agent had not been determined, the highest concentration tested was 10 microM.
Cell Culture. All cells were maintained in an incubator at 37 degrees C and 5% CO2 with 95% humidity. The PDC lines were cultured according to standard operating procedures established by the NCI PDMR (https://pdmr.cancer.gov/sops/default.htm). Briefly, all PDCs were thawed and cultured in Matrigel-coated flasks prepared with a working solution of 1X Ham's F-12 nutrient mix, without supplementation (Invitrogen, Waltham, MA, cat. 11765054), 100 U/mL penicillin-streptomycin (Invitrogen, cat. 15140122), and 2.5% Matrigel (Corning Inc., Corning, NY, cat. 354248) for the first three passages. All PDCs were cultured in complete DMEM/F-12 media containing advanced DMEM/F-12 (Invitrogen, cat. 12634028), 4.9% defined fetal bovine serum, heat inactivated (HyClone Laboratories Inc., Logan, UT, cat. SH30070.03HI), 389 ng/mL hydrocortisone (Sigma-Aldrich, cat. H4001), 9.7 ng/mL human EGF recombinant protein (Invitrogen, cat. PHG0313), 23.4 microg/mL adenine (Sigma-Aldrich, cat. A2786), 97.3 U/mL penicillin-streptomycin (Invitrogen, cat. 15140122), 1.9 mM L-glutamine (Invitrogen, cat. 25030081), and 9.7 microM Y-27632 dihydrochloride (Tocris Bioscience, Bristol, United Kingdom, cat. 1254). The PDCs were cultured in complete DMEM/F12 media without 9.7 microM Y-27632 dihydrochloride for at least two passages prior to the screen. The established cell line HOP-62 was cultured in RPMI 1640 medium, HEPES (Invitrogen, cat. 22400105) with 10% defined fetal bovine serum (HyClone Laboratories Inc., cat. SH30070.03) and 2 mM L-glutamine (Invitrogen, cat. 25030081). The pooled donor HUVEC were cultured in endothelial cell growth medium 2 (PromoCell, Heidelberg, Germany, cat. C-22011) and the hMSC were cultured in mesenchymal stem cell growth medium 2 (PromoCell, cat. C-28009). For all experiments, HUVEC and hMSC were used at passages </=5, while the malignant cell lines were used at passages </=15. […]

[1] = second compound 0.1 µM, first compound 0.0316 µM
[2] = second compound 0.316 µM, first compound 0.0316 µM
[3] = second compound 1 µM, first compound 0.0316 µM
[4] = second compound 3.16 µM, first compound 0.0316 µM
[5] = second compound 10 µM, first compound 0.0316 µM
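Further: spheroids exposed to agents for 7 days before readout.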

Compound CC(=O)Nc1cccc(-n2c(=O)n(C3CC3)c(=O)c3c(Nc4ccc(I)cc4F)n(C)c(=O)c(C)c32)c1 + C=CC(=O)N1CCN(c2nc(=O)n(-c3c(C)ccnc3C(C)C)c3nc(-c4c(O)cccc4F)c(F)cc23)C(C)C1 has an IC50 (second compound 0.1 µM) of 1.74 nM, an IC50 (second compound 0.316 µM) of 1.57 nM and an IC50 (second compound 1 µM) of 2 nM. For the same compound, the IC50 (second compound 3.16 µM) was 1.36 nM, the IC50 (second compound 10 µM) was 0.33 nM and the viability, T/C (second compound 0.1 µM, first compound 0.0001 µM) was 102%. For the same compound, the viability, T/C (second compound 0.1 µM, first compound 0.000316 µM) was 81.2%, the viability, T/C (second compound 0.1 µM, first compound 0.001 µM) was 55.9% and the viability, T/C (second compound 0.1 µM, first compound 0.00316 µM) was 42.2%. The viability, T/C (second compound 0.1 µM, first compound 0.01 µM) was 30%, the viability, T/C [1] was 21.3% and the viability, T/C (second compound 0.316 µM, first compound 0.0001 µM) was 114%. The viability, T/C (second compound 0.316 µM, first compound 0.000316 µM) was 83%, the viability, T/C (second compound 0.316 µM, first compound 0.001 µM) was 54.6% and the viability, T/C (second compound 0.316 µM, first compound 0.00316 µM) was 40.1%. It also gave a viability, T/C (second compound 0.316 µM, first compound 0.01 µM) of 30.6%, a viability, T/C [2] of 21.4% and a viability, T/C (second compound 1 µM, first compound 0.0001 µM) of 92.5%. It also gave a viability, T/C (second compound 1 µM, first compound 0.000316 µM) of 84.3%, a viability, T/C (second compound 1 µM, first compound 0.001 µM) of 61.2% and a viability, T/C (second compound 1 µM, first compound 0.00316 µM) of 41.7%. It also gave a viability, T/C (second compound 1 µM, first compound 0.01 µM) of 31.9%, a viability, T/C [3] of 23.8% and a viability, T/C (second compound 3.16 µM, first compound 0.0001 µM) of 84.6%. For the same compound, the viability, T/C (second compound 3.16 µM, first compound 0.000316 µM) was 81.5%, the viability, T/C (second compound 3.16 µM, first compound 0.001 µM) was 52.4% and the viability, T/C (second compound 3.16 µM, first compound 0.00316 µM) was 38.7%. For the same compound, the viability, T/C (second compound 3.16 µM, first compound 0.01 µM) was 30.1%, the viability, T/C [4] was 26.6% and the viability, T/C (second compound 10 µM, first compound 0.0001 µM) was 61.6%. For the same compound, the viability, T/C (second compound 10 µM, first compound 0.000316 µM) was 51.3%, the viability, T/C (second compound 10 µM, first compound 0.001 µM) was 29.3% and the viability, T/C (second compound 10 µM, first compound 0.00316 µM) was 26.4%. It also gave a viability, T/C (second compound 10 µM, first compound 0.01 µM) of 23.2% and a viability, T/C [5] of 18.6%.
With COc1cc(Nc2ncc3c(n2)-c2ccc(Cl)cc2C(c2c(F)cccc2OC)=NC3)ccc1C(=O)O + C=CC(=O)N1CCN(c2nc(=O)n(-c3c(C)ccnc3C(C)C)c3nc(-c4c(O)cccc4F)c(F)cc23)C(C)C1 the IC50 (second compound 0.1 µM) was > 10000 nM, the IC50 (second compound 0.316 µM) was > 10000 nM and the IC50 (second compound 1 µM) was > 10000 nM. For the same compound, the IC50 (second compound 3.16 µM) was > 10000 nM, the IC50 (second compound 10 µM) was > 10000 nM and the viability, T/C [1] was 99.7%. The viability, T/C (second compound 0.1 µM, first compound 0.1 µM) was 100%, the viability, T/C (second compound 0.1 µM, first compound 0.316 µM) was 95.9% and the viability, T/C (second compound 0.1 µM, first compound 1 µM) was 92.7%. For the same compound, the viability, T/C (second compound 0.1 µM, first compound 3.16 µM) was 100%, the viability, T/C (second compound 0.1 µM, first compound 10 µM) was 107% and the viability, T/C [2] was 94.5%. The viability, T/C (second compound 0.316 µM, first compound 0.1 µM) was 92.1%, the viability, T/C (second compound 0.316 µM, first compound 0.316 µM) was 92.2% and the viability, T/C (second compound 0.316 µM, first compound 1 µM) was 96.8%. For the same compound, the viability, T/C (second compound 0.316 µM, first compound 3.16 µM) was 98.7%, the viability, T/C (second compound 0.316 µM, first compound 10 µM) was 106% and the viability, T/C [3] was 97.8%. The viability, T/C (second compound 1 µM, first compound 0.1 µM) was 93.5%, the viability, T/C (second compound 1 µM, first compound 0.316 µM) was 92.2% and the viability, T/C (second compound 1 µM, first compound 1 µM) was 93.9%. The viability, T/C (second compound 1 µM, first compound 3.16 µM) was 85.6%, the viability, T/C (second compound 1 µM, first compound 10 µM) was 99.7% and the viability, T/C [4] was 80.9%. It also gave a viability, T/C (second compound 3.16 µM, first compound 0.1 µM) of 85.5%, a viability, T/C (second compound 3.16 µM, first compound 0.316 µM) of 86.1% and a viability, T/C (second compound 3.16 µM, first compound 1 µM) of 90.6%. For the same compound, the viability, T/C (second compound 3.16 µM, first compound 3.16 µM) was 90.9%, the viability, T/C (second compound 3.16 µM, first compound 10 µM) was 87.4% and the viability, T/C [5] was 65.4%. It also gave a viability, T/C (second compound 10 µM, first compound 0.1 µM) of 67.4%, a viability, T/C (second compound 10 µM, first compound 0.316 µM) of 63.6% and a viability, T/C (second compound 10 µM, first compound 1 µM) of 58.2%. The viability, T/C (second compound 10 µM, first compound 3.16 µM) was 56.5% and the viability, T/C (second compound 10 µM, first compound 10 µM) was 49.8%.
